The assay concerns the target T1, hα4 and β1 integrins (VLA-4) (Homo sapiens, UniProt P05556+P13612).
T1 construct: expressed in transfected cells; host or cells: CHO cells
The assay can be described thus: In vitro evaluation: inhibition of binding of CHO cells expressing hα4 and β1 integrins to Eu3+-hVCAM-1 D1D7-IgG. Particulars: ligand Eu3+-hVCAM-1 D1D7-IgG 2 nM, Ki calculated from IC50. Here is the method: CHO cells which were forced to be expressed by transduction of hα4 and β1 integrins are seeded (3×10^4 cells/100 μl/well) on a Costar 3599 plate, and cultured for 2 days. A medium is washed with a buffer A* two times, and Eu^3+-hVCAM-1 D1D7-IgG which was diluted with an assay buffer A** to 2 nM is added at 50 μl/well. A test substance which was diluted with 2% DMSO-assay buffer (in the presence or the absence of 6% human serum albumin) is added at 50 μl/well (A solution which was separately diluted is added to a well in which Scatchard analysis is performed), this is stirred with a plate mixer for 5 minutes, and allowed to stand at room temperature for 1 hour. Thereafter, this is washed with a buffer A four times, a potentiating reagent (manufactured by DELFIA) is added at 100 μl/well, this is shaken for 5 minutes using a plate mixer, and a fluorescence intensity is measured with a time-resolved fluorometer (DELFIA Wallac). IC50 (concentration at which binding of CHO cell and Eu^3+-hVCAM-1 D1D7-IgG is inhibited by 50%) of a test substance is obtained from an integration rate obtained from a calculation equation: [(FT−FNS)−(FI−FNS)]/[(FT−FNS)]×100, wherein FT indicates a fluorescence intensity of a well not containing a test substance, FNS indicates a fluorescence intensity of a well not containing a test substance and hVCAM-1 D1D7-IgG, and FI indicates a fluorescence intensity containing a test substance. A Kd value showing strength of binding and Bmax (maximum binding amount) were presumed in a range of 0.06 to 20 nM according to the Scachard analysis method. [formula]
A Ki value was calculated according to the above equation ([L] is ligand concentration)
[* buffer A: 25 mM HEPES (pH 7.5), 150 mM NaCl, 1 mM Ca^2+, 1 mM Mg^2+, 4 mM Mn^2+; ** assay buffer: 25 mM HEPES (pH 7.5), 150 mM NaCl, 1 mM Ca^2+, 1 mM Mg^2+, 4 mM Mn^2+, 0.1% BSA, 20 μM DTPA, with/without 6% ALBUMIN, HUMAN SERUM (C/NA-1653, SIGMA)]
T1 sequence (P13612 34-1032): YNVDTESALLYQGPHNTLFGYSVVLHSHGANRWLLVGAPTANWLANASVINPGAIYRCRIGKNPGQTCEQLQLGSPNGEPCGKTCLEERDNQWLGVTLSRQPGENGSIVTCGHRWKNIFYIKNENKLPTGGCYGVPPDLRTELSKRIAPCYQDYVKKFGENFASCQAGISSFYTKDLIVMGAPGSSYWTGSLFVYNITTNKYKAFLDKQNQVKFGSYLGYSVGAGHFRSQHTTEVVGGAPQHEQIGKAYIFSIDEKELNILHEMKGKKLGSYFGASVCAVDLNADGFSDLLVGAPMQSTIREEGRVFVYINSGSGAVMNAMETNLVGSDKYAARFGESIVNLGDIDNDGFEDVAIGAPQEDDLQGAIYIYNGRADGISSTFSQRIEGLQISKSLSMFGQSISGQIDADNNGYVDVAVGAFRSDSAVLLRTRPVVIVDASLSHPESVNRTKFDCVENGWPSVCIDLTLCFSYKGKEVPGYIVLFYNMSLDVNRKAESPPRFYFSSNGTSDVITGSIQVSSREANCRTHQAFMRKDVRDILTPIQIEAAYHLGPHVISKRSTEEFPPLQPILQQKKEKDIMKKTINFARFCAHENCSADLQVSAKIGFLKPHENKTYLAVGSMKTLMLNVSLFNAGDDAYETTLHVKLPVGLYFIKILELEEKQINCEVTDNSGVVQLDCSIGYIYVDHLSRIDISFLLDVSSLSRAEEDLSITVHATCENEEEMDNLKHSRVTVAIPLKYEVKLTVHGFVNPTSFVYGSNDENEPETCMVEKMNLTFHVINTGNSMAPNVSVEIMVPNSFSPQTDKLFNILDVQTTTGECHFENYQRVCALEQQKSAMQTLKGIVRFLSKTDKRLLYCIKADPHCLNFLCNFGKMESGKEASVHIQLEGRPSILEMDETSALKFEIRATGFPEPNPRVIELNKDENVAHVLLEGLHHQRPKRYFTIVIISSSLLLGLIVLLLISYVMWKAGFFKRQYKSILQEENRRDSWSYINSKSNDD
T1 sequence (P05556 21-798): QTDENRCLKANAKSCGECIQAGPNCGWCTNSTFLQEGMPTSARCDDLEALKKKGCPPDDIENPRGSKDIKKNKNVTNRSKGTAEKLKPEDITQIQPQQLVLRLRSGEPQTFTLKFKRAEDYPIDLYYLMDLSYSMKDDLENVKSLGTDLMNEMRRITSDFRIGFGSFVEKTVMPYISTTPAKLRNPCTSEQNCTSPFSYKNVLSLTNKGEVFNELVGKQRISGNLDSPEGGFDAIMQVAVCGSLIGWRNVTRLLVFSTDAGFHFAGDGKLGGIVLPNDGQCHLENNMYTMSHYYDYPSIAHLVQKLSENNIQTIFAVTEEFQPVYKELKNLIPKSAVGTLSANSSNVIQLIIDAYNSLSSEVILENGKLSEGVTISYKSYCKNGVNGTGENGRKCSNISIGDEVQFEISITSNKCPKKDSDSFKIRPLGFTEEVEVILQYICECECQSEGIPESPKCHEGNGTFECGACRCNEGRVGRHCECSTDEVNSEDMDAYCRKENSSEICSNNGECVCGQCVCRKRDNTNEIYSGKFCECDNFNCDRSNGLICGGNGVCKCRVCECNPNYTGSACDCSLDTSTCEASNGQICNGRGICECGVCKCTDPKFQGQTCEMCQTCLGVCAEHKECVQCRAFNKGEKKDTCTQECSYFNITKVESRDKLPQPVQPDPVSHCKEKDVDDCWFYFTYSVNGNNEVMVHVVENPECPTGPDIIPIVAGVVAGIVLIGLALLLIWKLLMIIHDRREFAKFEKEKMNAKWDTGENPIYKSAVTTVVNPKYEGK
Turning to `CCO[C@H]1CCN(C(=O)Cc2cc(Cl)c(NC(=O)c3csc4ccccc34)cc2Cl)[C@@H]1c1ncc(CCC(=O)O)s1` [Example 94], the Ki (usually the equilibrium dissociation constant of an inhibitor or competing ligand from its target) is 6.2 nM.
Take `CON(C)[C@H]1C[C@@H](c2ncc(CCC(=O)O)s2)N(C(=O)Cc2cc(Cl)c(NC(=O)c3coc4ccccc34)cc2F)C1` [Example 131, 3-[2-[1-[4-(3-Benzo[b]furanylcarbonylamino)-5-chloro-2-fluorophenylacetyl]-(4S)—N,O-dimethylhydroxylamino-(2S)-pyrrolidinyl]-5-thiazolyl]propionic acid]: the Ki was 5.9 nM.
The same measure for `CCO[C@H]1CCN(C(=O)Cc2cc(Cl)c(NC(=O)c3coc4ccccc34)cc2F)[C@@H]1c1ncc(CCC(=O)O)o1` [Example 101]: 9.8 nM.
`CO[C@H]1C[C@@H](c2ncc(CCC(=O)O)o2)N(C(=O)Cc2cc(Cl)c(NC(=O)c3cn(C)c4ccccc34)cc2Cl)C1` [Example 12, 3-[2-[1-[2,5-Dichloro-4-(1-methyl-3-indolylcarbonylamino)phenylacetyl]-(4S)-methoxy-(2S)-pyrrolidinyl]-5-oxazolyl]propionic acid]: the Ki was 18 nM.
The same measure for `COC[C@@H]1CC[C@@H](c2ncc(CCC(=O)O)s2)N1C(=O)Cc1cc(Cl)c(NC(=O)c2csc3ccccc23)cc1F` [Example 55, 3-[2-[1-[4-[(3-Benzo[b]thienylcarbonyl)amino]-5-chloro-2-fluorophenylacetyl]-(5S)-methoxymethyl-(2S)-pyrrolidinyl]-5-thiazolyl]propionic acid]: 17 nM.
The figure for `CO[C@@H]1C[C@@H](c2ncc(CCC(=O)O)s2)N(C(=O)Cc2cc(Cl)c(NC(=O)c3cn(C)c4ccccc34)cc2Cl)C1` [Example 24, 3-[2-[1-[2,5-Dichloro-4-(1-methyl-3-indolylcarbonylamino)phenylacetyl]-(4R)-methoxy-(2S)-pyrrolidinyl]-5-thiazolyl]propionic acid] is 6.5 nM; for `CO[C@H]1C[C@@H](c2ncc(CCC(=O)O)o2)N(C(=O)Cc2cc(Cl)c(NC(=O)c3csc4ccccc34)cc2Cl)C1` [Example 14, 3-[2-[1-[[4-[(3-Benzo[b]thienylcarbonyl)amino]-2,5-dichlorophenyl]acetyl]-(4S)-methoxy-(2S)-pyrrolidinyl]-5-oxazolyl]propionic acid] it is 4 nM; for `CCO[C@H]1CCN(C(=O)Cc2cc(Cl)c(NC(=O)c3coc4ccccc34)cc2F)[C@@H]1c1ncc(CCC(=O)O)s1` [Example 95] it is 4.2 nM.
The figure for `CO[C@@H]1C[C@@H](c2ncc(CCC(=O)O)s2)N(C(=O)Cc2cc(Cl)c(Nc3nc4ccccc4s3)cc2Cl)C1` [Example 125] is 11 nM.
Take `O=C(O)CCc1cnc([C@@H]2C[C@H](F)CN2C(=O)Cc2cc(Cl)c(NC(=O)c3coc4ccccc34)cc2F)s1` [Example 22, 3-[2-[1-[[4-[(1-Benzofuran-3-ylcarbonyl)amino]-5-chloro-2-fluorophenyl]acetyl]-(4S)-fluoro-(2S)-pyrrolidinyl]-5-thiazolyl]propionic acid]: the Ki is 0.23 nM.
Regarding `O=C(O)CCc1cnc([C@@H]2C[C@H](F)CN2C(=O)Cc2cc(Cl)c(NC(=O)c3csc4ccccc34)cc2F)s1` [Example 21, 3-[2-[1-[[4-[(3-Benzo[b]thienylcarbonyl)amino]-5-chloro-2-fluorophenyl]acetyl]-(4S)-fluoro-(2S)-pyrrolidinyl]-5-thiazolyl]propionic acid], the Ki was 0.61 nM.
The figure for `Cn1cc(C(=O)Nc2cc(F)c(CC(=O)N3C[C@@H](F)C[C@H]3c3ncc(CCC(=O)O)s3)cc2Cl)c2ccccc21` [Example 19, 3-[2-[1-[5-Chloro-2-fluoro-4-(1-methyl-3-indolylcarbonyl)aminophenylacetyl]-(4S)-fluoro-(2S)-pyrrolidinyl]-5-thiazolyl]propionic acid] is 0.94 nM; for `CON(C)[C@H]1C[C@@H](c2ncc(CCC(=O)O)s2)N(C(=O)Cc2cc(Cl)c(NC(=O)c3cn(C)c4ccccc34)cc2Cl)C1` [Example 128, 3-[3-[1-[2,5-Dichloro-4-(1-methyl-3-indolylcarbonylamino)phenylacetyl]-(4S)—N,O-dimethylhydroxylamino-(2S)-pyrrolidinyl]-5-thiazolyl]propionic acid] it is 6.7 nM; for `CO[C@H]1C[C@@H](c2ncc(CCC(=O)O)o2)N(C(=O)Cc2cc(Cl)c(NC(=O)c3cn(C)c4ccccc34)cc2F)C1` [Example 13, 3-[2-[1-[5-Chloro-2-fluoro-4-(1-methyl-3-indolylcarbonyl)aminophenylacetyl]-(4S)-methoxy-(2S)-pyrrolidinyl]-5-oxazolyl]propionic acid] it is 17 nM.
Turning to `COC[C@@H]1CC[C@@H](c2ncc(CCC(=O)O)s2)N1C(=O)Cc1cc(Cl)c(NC(=O)c2cn(C)c3ccccc23)cc1F` [Example 53, 3-[2-[1-[5-Chloro-2-fluoro-4-(1-methyl-3-indolylcarbonyl)aminophenylacetyl]-(5S)-methoxymethyl-(2S)-pyrrolidinyl]-5-thiazolyl]propionic acid], the Ki is 16 nM.
For the compound `CO[C@H]1C[C@@H](c2ncc(CCC(=O)O)s2)N(C(=O)Cc2cc(Cl)c(NC(=O)c3coc4ccccc34)cc2Cl)C1` [Example 5, 3-[2-[1-[4-[(1-Benzofuran-3-ylcarbonyl)amino]-2,5-dichlorophenylacetyl]-(4S)-methoxy-(2S)-pyrrolidinyl]-5-thiazolyl]propionic acid], the Ki is 0.6 nM.
The same measure for `CCO[C@H]1CCN(C(=O)Cc2cc(Cl)c(NC(=O)c3csc4ccccc34)cc2F)[C@@H]1c1ncc(CCC(=O)O)s1` [Example 93]: 2.9 nM.
The figure for `CO[C@H]1C[C@@H](c2cc(CCC(=O)O)on2)N(C(=O)Cc2cc(Cl)c(NC(=O)c3csc4ccccc34)cc2F)C1` [Example 33, 3-[3-[1-[[4-[(3-Benzo[b]thienylcarbonyl)amino]-5-chloro-2-fluorophenyl]acetyl]-(4S)-methoxy-(2S)-pyrrolidinyl]-5-isoxazolyl]propionic acid] is 2 nM; for `CON(C)[C@H]1C[C@@H](c2ncc(CCC(=O)O)s2)N(C(=O)Cc2cc(Cl)c(NC(=O)c3cn(C)c4ccccc34)cc2F)C1` [Example 127, 3-[2-[1-[5-Chloro-2-fluoro-4-(1-methyl-3-indolylcarbonylamino)phenylacetyl]-(4S)—N,O-dimethylhydroxylamino-(2S)-pyrrolidinyl]-5-thiazolyl]propionic acid] it is 4.5 nM; for `COC[C@@H]1CC[C@@H](c2ncc(CCC(=O)O)s2)N1C(=O)Cc1cc(Cl)c(NC(=O)c2coc3ccccc23)cc1F` [Example 56, 3-[2-[1-[4-[(1-Benzofuran-3-ylcarbonyl)amino]-5-chloro-2-fluorophenylacetyl]-(5S)-methoxymethyl-(2S)-pyrrolidinyl]-5-thiazolyl]propionic acid] it is 66 nM.
With `O=C(O)CCc1cnc([C@@H]2[C@@H](O)CCN2C(=O)Cc2cc(Cl)c(NC(=O)c3csc4ccccc34)cc2F)s1` [Example 122], the Ki is 1.6 nM.
The same measure for `O=C(O)CCc1cnc([C@@H]2CCCN2C(=O)Cc2cc(Cl)c(NC(=O)c3csc4ccccc34)cc2F)s1` [Example 29, 3-[2-[1-[4-[(3-Benzo[b]thienylcarbonyl)amino]-5-chloro-2-fluorophenylacetyl]-(2S)-pyrrolidinyl]-5-thiazolyl]propionic acid]: 0.26 nM; for `O=C(O)CCc1cnc([C@@H]2C[C@@H]3CCCC[C@@H]3N2C(=O)Cc2cc(Cl)c(NC(=O)c3csc4ccccc34)cc2F)s1` [Example 61, 3-[2-[1-[4-[(3-Benzo[b]thienylcarbonyl)amino]-5-chloro-2-fluorophenylacetyl]-(2S)-octahydroindolyl]-5-thiazolyl]propionic acid]: 6 nM; for `CCO[C@H]1CCN(C(=O)Cc2cc(Cl)c(NC(=O)c3cn(C)c4ccccc34)cc2Cl)[C@@H]1c1ncc(CCC(=O)O)o1` [Example 98, 3-[2-[1-[[2,5-Dichloro-4-(1-methyl-3-indolylcarbonylamino)phenyl]acetyl]-(3S)-ethoxy-(2S)-pyrrolidinyl]-5-oxazolyl]propionic acid]: 11 nM.
Regarding `CC(C)O[C@H]1C[C@@H](c2ncc(CCC(=O)O)s2)N(C(=O)Cc2cc(Cl)c(NC(=O)c3coc4ccccc34)cc2F)C1` [Example 38], the Ki is 3.3 nM.
Regarding `CCOC[C@@H]1CC[C@@H](c2ncc(CCC(=O)O)s2)N1C(=O)Cc1cc(Cl)c(NC(=O)c2cn(C)c3ccccc23)cc1Cl` [Example 48, 3-[2-[1-[2,5-Dichloro-4-(1-methyl-3-indolylcarbonylamino)phenylacetyl]-(5S)-ethoxymethyl-(2S)-pyrrolidinyl]-5-thiazolyl]propionic acid], the Ki is 36 nM.
